Results taken from paper PMC3699648, “Replacement of the Human Topoisomerase Linker Domain with the Plasmodial Counterpart Renders the Enzyme Camptothecin Resistant” (PLoS ONE, 2013).

Target: T1, hTop1 (Homo sapiens, UniProt P11387)
T1 construct: gene TOP1; expressed in S. cerevisiae top1 null EKY3, anti-FLAG purified
T1 sequence (P11387 1-765): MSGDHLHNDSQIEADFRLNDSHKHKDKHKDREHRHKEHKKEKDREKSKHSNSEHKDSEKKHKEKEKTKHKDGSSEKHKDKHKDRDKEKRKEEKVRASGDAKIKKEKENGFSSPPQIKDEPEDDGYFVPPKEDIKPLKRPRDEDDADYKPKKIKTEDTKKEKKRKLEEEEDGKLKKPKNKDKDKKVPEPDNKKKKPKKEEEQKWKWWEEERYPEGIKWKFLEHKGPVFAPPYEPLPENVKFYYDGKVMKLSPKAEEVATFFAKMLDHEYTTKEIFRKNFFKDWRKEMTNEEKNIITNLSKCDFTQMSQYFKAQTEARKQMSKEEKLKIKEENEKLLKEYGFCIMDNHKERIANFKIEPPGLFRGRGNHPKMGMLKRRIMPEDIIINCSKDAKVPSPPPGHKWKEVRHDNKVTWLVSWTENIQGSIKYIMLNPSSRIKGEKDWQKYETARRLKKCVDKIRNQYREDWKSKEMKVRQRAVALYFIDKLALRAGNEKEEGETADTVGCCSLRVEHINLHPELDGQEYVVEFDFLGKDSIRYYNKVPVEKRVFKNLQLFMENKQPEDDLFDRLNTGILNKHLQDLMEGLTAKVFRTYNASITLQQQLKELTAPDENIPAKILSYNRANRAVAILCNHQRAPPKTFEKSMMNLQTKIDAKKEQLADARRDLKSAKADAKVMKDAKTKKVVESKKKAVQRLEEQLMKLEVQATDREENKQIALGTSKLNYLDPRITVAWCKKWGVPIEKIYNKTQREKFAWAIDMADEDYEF
Assay: stabilisation of DNA cleavage complex (CL25/CP25, gel); also relaxation and religation assays
Type: biochemical
Conditions: 100 µM CPT, 20 nM duplex CL25/CP25, 1 min, 25 °C, pH 7.5, 5 mM MgCl2, 5 mM CaCl2, 150 mM KCl; binds covalent enzyme-DNA complex

`CC[C@@]1(O)C(=O)OCc2c1cc1n(c2=O)Cc2cc3ccccc3nc2-1` [CPT, camptothecin] was tested, and the “% cleavage complex at 100 μM” value was “In presence of CPT the hTop1 cleavage is strongly increased”.
